For series [1], the system named is p-388 leukemia cells. Kind of series: Antitumour activity, P-388 leukemia in BDF1 mice, intraperitoneal-intraperitoneal (Test Example 1). Format: in vivo. The note with it: Mus musculus, P388, ip, 720 h, read-out: ILS (Increase Life Span); for ILS at 200 mg/kg: 200 mg/kg/day i.p.; for ILS at 400 mg/kg: 400 mg/kg/day i.p. How it is done: To BDF1 mice, p-388 leukemia cells were intraperitoneally inoculated in an amount of 1×10^6 cells/mouse. A test drug was intraperitoneally administered twice, i.e. one day and four days after the inoculation. […] The increase life span ILS (%)^* was obtained with the number of survival days of mice of the control group to which a physiological saline was administered, being evaluated as 100. The drugs were dispersions obtained by adding small amounts of surfactants (e.g. Tween-80) to the test compounds.
*ILS(%): Increase Life Span, calculated in accordance with the following
formula: ILS(%) = MST - 100, where MST is the ratio of median survival
time of test and control animals.

Series [2] relates to p-388 leukemia cells. Kind of series: Antitumour activity, P-388 leukemia in BDF1 mice, intraperitoneal-oral (Test Example 2). Format: in vivo. The settings on record: one and four days after i.p. inoculation, Formulation Example 4. From the text: To BDF1 mice, p-388 leukemia cells were intraperitoneally inoculated in an amount of 1×10^6 cells/mouse. A test drug was orally administered twice i.e. one day and four days after the inoculation. […] The test drugs and comparative drugs were formulated in accordance with Formulation Example 4 given hereinafter.
*ILS(%), **Comparative Compound No. 1 and ***Comparative Compound No. 2
are the same as mentioned above in the notes of Table 1.
(§1) The Compound No. 1 of the present invention was preliminarily pulverized by a centrifugal pulverizer. On the other hand, 5 parts by weight of polyoxyethylene (60) hardened castor oil, 0.2 part by weight of silicone and 0.3 part by weight of a polyoxyethylene-polyoxypropylene block polymer were added to 79.5 parts by weight of a physiological saline to obtain an aqueous solution, to which 10 parts by weight of the above pulverized Compound No. 1 of the present invention was added. The mixture was pulverized in a wet system by a sand mill using glass beads (80% of particles having a particle size of not larger than 2 μm). Then, 5 parts by weight of xanthane gum (2% solution) was added thereto to obtain an aqueous suspension.

A short description of series [3]: Acute toxicity in ddY mice, intraperitoneal. The settings on record: mouse, in vivo, ip, ddY mice (10 animals), formulated per Formulation Example 4. How it is done:
To ddY mice (10 animals), a drug containing one of Compound Nos. 1-7 and 9-13 of the present invention formulated in accordance with Formulation Example 4 was intraperitoneally administered, and the LD50 value was measured and found to be at least 100 mg/kg in each case, and at least 50 mg/kg in the case of Compound Nos. 8 and 14 of the present invention.
as §1

The mark [4] stands for this setting: one and four days after i.p. inoculation, 30 days observation.
[5] abbreviates: 100 mg/kg/day i.p., one and four days after i.p. inoculation, 30 days observation.

Molecules are shown by their SMILES. Read-outs that look alike come from different tables or passages of the source.

In the case of `O=c1[nH]cc(F)c(=O)[nH]1` [5-Fluorouracil, reference compound], the ILS at 60 mg/kg in the series on p-388 leukemia cells [1] came out at 85%.
In the case of `O=C(NC(=O)c1ccccc1Cl)Nc1ccc(Oc2ccc(Cl)nn2)c(Cl)c1` [Comparative Compound No. 1, N--(2chlorobenzoyl)-N'--[3chloro-4-(3-chloro-6-pyridazinyloxy)phenyl]urea, reference compound], in the series on p-388 leukemia cells [2] (800 mg/kg/day oral), the “ILS (Increase Life Span)” value was found to be 10%. For the same compound, in the series with p-388 leukemia cells [1] (setting [4]), the ILS at 200 mg/kg amounted to 24% and the ILS at 400 mg/kg turned out to be 42%.
As to `O=C(NC(=O)c1c(Cl)cccc1Cl)Nc1ccc(Oc2ccc(Cl)nn2)c(Cl)c1` [Comparative Compound No. 2, N--(2,6dichlorobenzoyl)-N'--[3chloro-4-(3-chloro-6-pyridazinyloxy)phenyl]rea, reference compound], in the series with p-388 leukemia cells [2] (800 mg/kg/day oral), the “ILS (Increase Life Span)” value came out at 0%. In the series on p-388 leukemia cells [1] (setting [4]), the ILS at 200 mg/kg was -3% and the ILS at 400 mg/kg worked out at 5%.
`O=C(NC(=O)c1ccccc1[N+](=O)[O-])Nc1ccc(Oc2ccc(Br)nn2)c(Cl)c1` [Compound No. 1, N-(2-nitrobenzoyl)-N'-[4-(6-bromo-3-pyridazinyloxy)3-chlorophenyl]urea] gave a median lethal dose (LD50) in series [3] of at least 100 mg/kg. The “ILS (Increase Life Span)” value with p-388 leukemia cells [2] (200 mg/kg/day oral) was determined as 58%. Moreover, the ILS at 200 mg/kg in the series with p-388 leukemia cells [1] (setting [4]) is 178%.
In the case of `O=C(NC(=O)c1ccccc1[N+](=O)[O-])Nc1ccc(Oc2ccc(Cl)nn2)c(Cl)c1` [Compound No. 2, N-(2-nitrobenzoyl)-N'-[3-chloro-4-(6-chloro-3pyridazinyloxy)phenyl]urea], in series [3], the LD50 was at least 100 mg/kg. In the series on p-388 leukemia cells [1] (setting [4]), the ILS at 200 mg/kg turned out to be 71%.
In turn, `O=C(NC(=O)c1ccccc1[N+](=O)[O-])Nc1ccc(Oc2ccc(I)nn2)c(Cl)c1` [Compound No. 3, N-(2-nitrobenzoyl)-N'-[3-chloro-4-(6-iodo-3-pyridazinyloxy)phenyl]urea] returned an LD50 in series [3] of at least 100 mg/kg. Also, in the series on p-388 leukemia cells [1] (setting [5]), the ILS at 100 mg/kg worked out at 92%.
In turn, `O=C(NC(=O)c1ccccc1[N+](=O)[O-])Nc1ccc(Oc2cccnn2)c(Cl)c1` [Compound No. 4, N-(2-nitrobenzoyl)-N'-[3-chloro-4-(3-pyridazinyloxy)phenyl]urea] displayed an LD50 in series [3] of at least 100 mg/kg. Also, the ILS at 200 mg/kg in the series with p-388 leukemia cells [1] (setting [4]) came out at 70%.
On the same counts, the results for `O=C(NC(=O)c1ccccc1[N+](=O)[O-])Nc1ccc(Oc2ccc(C(F)(F)F)nn2)c(Cl)c1` [Compound No. 5, N-(2-nitrobenzoyl)-N'-[3-chloro-4-(6-trifluoro-methyl-3-pyridazinyloxy)phenyl]urea] are at least 100 mg/kg and 75%.
`O=C(NC(=O)c1ccccc1[N+](=O)[O-])Nc1ccc(Oc2ccc(Br)nn2)c(Br)c1` [Compound No. 6, N-(2-nitrobenzoyl)-N'-[3-bromo-4-(6-bromo-3-pyridazinyloxy)phenyl]urea]: the LD50 in series [3] was at least 100 mg/kg.
In series [3], `O=C(NC(=O)c1ccccc1[N+](=O)[O-])Nc1ccc(Oc2ccc(Br)nn2)cc1` [Compound No. 7, N-(2-nitrobenzoyl)-N'-[4-(6-bromo-3-pyridazinyloxy)phenyl]urea] displayed an LD50 of at least 100 mg/kg. Also, the ILS at 100 mg/kg in the series on p-388 leukemia cells [1] was above 120%.
`O=C(NC(=O)c1ccccc1[N+](=O)[O-])Nc1ccc(Oc2ccc(Cl)nn2)c(C(F)(F)F)c1` [Compound No. 8, N-(2-nitrobenzoyl)-N'-[4-(6-chloro-3-pyridazinyloxy)-3-trifluoromethylphenyl]urea] had an LD50 in series [3] of at least 50 mg/kg. Moreover, in the series on p-388 leukemia cells [1] (setting [5]), the ILS at 100 mg/kg was determined as 75%.
Consider `O=C(NC(=O)c1ccccc1[N+](=O)[O-])Nc1ccc(Oc2ccc(Br)nn2)c(F)c1` [Compound No. 9, N-(2-nitrobenzoyl)-N'-[4-(6-bromo-3-pyridazinyloxy)-3-fluorophenyl]urea], for which the LD50 in series [3] was at least 100 mg/kg. Besides, the “ILS (Increase Life Span)” value in the series on p-388 leukemia cells [2] (200 mg/kg/day oral) worked out at 52%. Further, the ILS at 100 mg/kg in the series with p-388 leukemia cells [1] was 90%.
For the compound `O=C(NC(=O)c1ccc(Cl)cc1[N+](=O)[O-])Nc1ccc(Oc2ccc(Br)nn2)c(Cl)c1` [Compound No. 10, N-(4-chloro-2-nitrobenzoyl)-N'-[4-(6-bromo-3-pyridazinyloxy)-3-chlorophenyl]urea], the LD50 in series [3] was at least 100 mg/kg. Moreover, the “ILS (Increase Life Span)” value with p-388 leukemia cells [2] (400 mg/kg/day oral) is 32%. For the same compound, the ILS at 100 mg/kg with p-388 leukemia cells [1] was 111%.
With `O=C(NC(=O)c1ccc([N+](=O)[O-])cc1[N+](=O)[O-])Nc1ccc(Oc2ccc(Br)nn2)c(Cl)c1` [Compound No. 11, N-(2,4-dinitrobenzoyl)-N'-[4-(6-bromo-3-pyridazinyloxy)-3-chlorophenyl]urea], the LD50 in series [3] was at least 100 mg/kg. Besides, in the series with p-388 leukemia cells [1], the ILS at 100 mg/kg worked out at 102%.
For the compound `O=C(NC(=O)c1ccccc1Cl)Nc1ccc(Oc2ccc(Cl)nn2)c(C(F)(F)F)c1` [Compound No. 12, N-(2-chlorobenzoyl)-N'-[4-(6-chloro-3-pyridazinyloxy)-3-trifluoromethylphenyl]urea], the LD50 in series [3] is at least 100 mg/kg.
The same measure, in the same setting: next, `Cc1cc(NC(=O)NC(=O)c2ccccc2[N+](=O)[O-])ccc1Oc1ccc(Cl)nn1` [Compound No. 13, N-(2-nitrobenzoyl)-N'-[4-(6-chloro-3-pyridazinyloxy)-3-methylphenyl]urea]: at least 100 mg/kg.
As to `O=C(NC(=O)c1ccc([N+](=O)[O-])cc1[N+](=O)[O-])Nc1ccc(Oc2ccc(Cl)nn2)c(C(F)(F)F)c1` [Compound No. 14, N-(2,4-dinitrobenzoyl)-N'-[4-(6-chloro-3-pyridazinyloxy)-3-trifluoromethylphenyl]urea], the LD50 in series [3] was at least 50 mg/kg.

(Values after patent US4845093A, “N-benzoyl-N'-pyridazinyloxyphenyl urea compounds, and antitumorous compositions containing them, and process for their preparation” (Ishihara Sangyo Kaisha Ltd., priority 1984, dated 1989).)
